Test results published in US9302999B2, “Substituted triazoles as herbicides” (E. I. DU PONT DE NEMOURS AND COMPANY, priority 2012, dated 2016).

How the values were obtained:
Assay type in all cases: in vivo
[1] = tested on: foxtail, giant (giant foxtail, Setaria faberii); assay: Test A pre-/postemergence: foxtail, giant
How it was run: (§1)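 Injury was scored visually on a 0 (no effect) to 100 (complete control) scale versus untreated controls roughly ten days after treatment in the greenhouse. Compounds, formulated in surfactant-containing non-phytotoxic solvent, went on as soil-directed preemergence spray or postemergence to one- to two-leaf plants 2–10 cm tall.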

[2] = tested on: ragweed (common ragweed, Ambrosia elation); assay: Test C pre-/postemergence: ragweed
How it was run: (§2)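 Preemergence on seeds in loam/sand, postemergence on 2–18 cm (1–4-leaf) plants in peat-based medium; compounds in non-phytotoxic solvent with surfactant. After 13–15 days in greenhouse, visual rating versus controls, 0 (no effect) to 100 (complete control).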

[3] = tested on: large crabgrass (Digitaria sanguinalis); assay: Test C pre-/postemergence: large crabgrass
How it was run: as §2

[4] = tested on: winter wheat (Triticum aestivum); assay: Test C pre-/postemergence: winter wheat
How it was run: as §2

[5] = tested on: velvetleaf (Abutilon theophrasti); assay: Test C pre-/postemergence: velvetleaf
How it was run: as §2

[6] = tested on: kochia (Kochia scoparia); assay: Test C pre-/postemergence: kochia
How it was run: as §2

[7] = tested on: corn (Zea mays); assay: Test A pre-/postemergence: corn
How it was run: as §1

[8] = tested on: wild oat (Avena fatua); assay: Test C pre-/postemergence: wild oat
How it was run: as §2

[9] = tested on: soybean (Glycine max); assay: Test C pre-/postemergence: soybean
How it was run: as §2

[10] = tested on: crabgrass, large (large crabgrass, Digitaria sanguinalis); assay: Test A pre-/postemergence: crabgrass, large
How it was run: as §1

[11] = tested on: foxtail, giant (giant foxtail, Setaria faberii); assay: Test C pre-/postemergence: foxtail, giant
How it was run: as §2

[12] = tested on: pigweed (Amaranthus retroflexus); assay: Test C pre-/postemergence: pigweed
How it was run: as §2

[13] = Postemergence, 125 g ai/ha, 0 to 100 scale, 0 is no effect, 100 is complete control
[14] = Postemergence, 500 g ai/ha, visual rating on 0 to 100 scale (0 no effect, 100 complete control), approximately ten days
[15] = Preemergence, 125 g ai/ha, 0 to 100 scale where 0 is no effect and 100 is complete control
[16] = Preemergence, 500 g ai/ha, 0 to 100 scale (0 no effect, 100 complete control)
[17] = Postemergence, 31 g ai/ha, scale 0 to 100 (0 no effect, 100 complete control)
[18] = Postemergence, 125 g ai/ha, scale 0 to 100, 0 no effect, 100 complete control
[19] = Postemergence, 250 g ai/ha, scale 0 to 100
[20] = Preemergence, 31 g ai/ha, scale of 0 to 100, 0 is no effect, 100 is complete control
[21] = Preemergence, 62 g ai/ha, scale of 0 to 100, 0 is no effect, 100 is complete control
[22] = Preemergence, 125 g ai/ha, scale 0 to 100, 0 no effect, 100 complete control
[23] = Preemergence, 250 g ai/ha, scale 0 to 100, 0 no effect, 100 complete control
[24] = Postemergence, 62 g ai/ha, scale 0 to 100 (0 no effect, 100 complete control)
[25] = Postemergence, 500 g ai/ha, 0 to 100 scale, 0 is no effect, 100 is complete control
[26] = Preemergence, 31 g ai/ha, scale 0 (no effect) to 100 (complete control)

Cc1nn(-c2ccc(F)c(F)c2)nc1Oc1ccnc(C(F)(F)F)c1 [Compound 145]
Foxtail, Giant plant response rating [1, 13]: 90
Foxtail, Giant plant response rating [1, 14]: 100
Plant response rating, Foxtail, Giant [1, 15]: 100
Plant response rating, Foxtail, Giant [1, 16]: 100
Plant response rating, Ragweed [2, 17]: 60
Plant response rating, Ragweed [2, 18]: 70
Plant response rating, Ragweed [2, 19]: 70
Plant response rating, Ragweed [2, 20]: 0
Plant response rating, Ragweed [2, 21]: 10
Plant response rating, Ragweed [2, 22]: 40
Plant response rating, Ragweed [2, 23]: 55
Plant response rating, Crabgrass, Large [3, 17]: 25
Plant response rating, Crabgrass, Large [3, 24]: 50
Plant response rating, Crabgrass, Large [3, 18]: 85
Plant response rating, Crabgrass, Large [3, 19]: 95
Plant response rating, Crabgrass, Large [3, 20]: 98
Plant response rating, Crabgrass, Large [3, 21]: 100
Plant response rating, Crabgrass, Large [3, 22]: 100
Plant response rating, Crabgrass, Large [3, 23]: 100
Plant response rating, Wheat [4, 17]: 5
Plant response rating, Wheat [4, 24]: 15
Plant response rating, Wheat [4, 18]: 30
Plant response rating, Wheat [4, 19]: 40
Plant response rating, Wheat [4, 21]: 5
Plant response rating, Wheat [4, 22]: 5
Plant response rating, Wheat [4, 23]: 50
Plant response rating, Velvetleaf [5, 17]: 35
Plant response rating, Velvetleaf [5, 24]: 35
Plant response rating, Velvetleaf [5, 18]: 50
Plant response rating, Velvetleaf [5, 19]: 60
Plant response rating, Velvetleaf [5, 20]: 0
Plant response rating, Velvetleaf [5, 21]: 10
Plant response rating, Velvetleaf [5, 22]: 75
Plant response rating, Velvetleaf [5, 23]: 85
Plant response rating, Kochia [6, 17]: 85
Plant response rating, Kochia [6, 24]: 85
Plant response rating, Kochia [6, 18]: 90
Plant response rating, Kochia [6, 19]: 95
Plant response rating, Kochia [6, 20]: 50
Plant response rating, Kochia [6, 21]: 90
Plant response rating, Kochia [6, 22]: 98
Plant response rating, Kochia [6, 23]: 98
Corn plant response rating [7, 13]: 40
Corn plant response rating [7, 14]: 90
Plant response rating, Corn [7, 15]: 10
Plant response rating, Corn [7, 16]: 40
Plant response rating, Oat, Wild [8, 17]: 20
Plant response rating, Oat, Wild [8, 24]: 40
Plant response rating, Oat, Wild [8, 18]: 60
Plant response rating, Oat, Wild [8, 19]: 80
Plant response rating, Oat, Wild [8, 20]: 45
Plant response rating, Oat, Wild [8, 21]: 70
Plant response rating, Oat, Wild [8, 22]: 90
Plant response rating, Oat, Wild [8, 23]: 90
Plant response rating, Soybean [9, 17]: 50
Plant response rating, Soybean [9, 24]: 50
Plant response rating, Soybean [9, 18]: 55
Plant response rating, Soybean [9, 19]: 60
Plant response rating, Soybean [9, 21]: 5
Plant response rating, Soybean [9, 22]: 5
Plant response rating, Soybean [9, 23]: 10
Crabgrass, Large plant response rating [10, 13]: 90
Crabgrass, Large plant response rating [10, 14]: 90
Plant response rating, Crabgrass, Large [10, 15]: 100
Plant response rating, Crabgrass, Large [10, 16]: 100
Plant response rating, Foxtail, Giant [11, 17]: 15
Plant response rating, Foxtail, Giant [11, 24]: 20
Plant response rating, Foxtail, Giant [11, 18]: 50
Plant response rating, Foxtail, Giant [11, 19]: 85
Plant response rating, Foxtail, Giant [11, 20]: 95
Plant response rating, Foxtail, Giant [11, 21]: 100
Plant response rating, Foxtail, Giant [11, 22]: 100
Plant response rating, Foxtail, Giant [11, 23]: 100
Plant response rating, Pigweed [12, 17]: 85
Plant response rating, Pigweed [12, 24]: 98
Plant response rating, Pigweed [12, 18]: 98
Plant response rating, Pigweed [12, 19]: 98
Plant response rating, Pigweed [12, 20]: 90
Plant response rating, Pigweed [12, 21]: 98
Plant response rating, Pigweed [12, 22]: 98
Plant response rating, Pigweed [12, 23]: 100

CCc1nn(-c2ccc(F)cc2)nc1Oc1ccnc(C(F)(F)F)c1 [Compound 166]
Plant response rating, Foxtail, Giant [1, 13]: 90
Foxtail, Giant plant response rating [1, 25]: 90
Plant response rating, Foxtail, Giant [1, 15]: 100
Plant response rating, Foxtail, Giant [1, 16]: 100
Plant response rating, Ragweed [2, 17]: 15
Plant response rating, Ragweed [2, 24]: 15
Plant response rating, Ragweed [2, 18]: 25
Plant response rating, Ragweed [2, 19]: 75
Plant response rating, Ragweed [2, 26]: 20
Plant response rating, Ragweed [2, 21]: 20
Plant response rating, Ragweed [2, 22]: 25
Plant response rating, Ragweed [2, 23]: 55
Plant response rating, Crabgrass, Large [3, 17]: 15
Plant response rating, Crabgrass, Large [3, 24]: 15
Plant response rating, Crabgrass, Large [3, 18]: 20
Plant response rating, Crabgrass, Large [3, 19]: 40
Plant response rating, Crabgrass, Large [3, 26]: 85
Plant response rating, Crabgrass, Large [3, 21]: 98
Plant response rating, Crabgrass, Large [3, 22]: 100
Plant response rating, Crabgrass, Large [3, 23]: 100
Plant response rating, Wheat [4, 17]: 5
Plant response rating, Wheat [4, 24]: 5
Plant response rating, Wheat [4, 18]: 5
Plant response rating, Wheat [4, 19]: 10
Plant response rating, Wheat [4, 26]: 0
Plant response rating, Wheat [4, 21]: 0
Plant response rating, Wheat [4, 22]: 5
Plant response rating, Wheat [4, 23]: 15
Plant response rating, Velvetleaf [5, 17]: 10
Plant response rating, Velvetleaf [5, 24]: 20
Plant response rating, Velvetleaf [5, 18]: 20
Plant response rating, Velvetleaf [5, 19]: 30
Plant response rating, Velvetleaf [5, 26]: 0
Plant response rating, Velvetleaf [5, 21]: 0
Plant response rating, Velvetleaf [5, 22]: 15
Plant response rating, Velvetleaf [5, 23]: 60
Plant response rating, Kochia [6, 17]: 90
Plant response rating, Kochia [6, 24]: 90
Plant response rating, Kochia [6, 18]: 90
Plant response rating, Kochia [6, 19]: 90
Plant response rating, Corn [7, 13]: 20
Corn plant response rating [7, 25]: 30
Plant response rating, Corn [7, 15]: 10
Plant response rating, Corn [7, 16]: 30
Plant response rating, Oat, Wild [8, 17]: 15
Plant response rating, Oat, Wild [8, 24]: 20
Plant response rating, Oat, Wild [8, 19]: 30
Plant response rating, Soybean [9, 17]: 35
Plant response rating, Soybean [9, 24]: 35
Plant response rating, Soybean [9, 18]: 35
Plant response rating, Soybean [9, 19]: 35
Plant response rating, Soybean [9, 26]: 5
Plant response rating, Soybean [9, 21]: 5
Plant response rating, Soybean [9, 22]: 20
Plant response rating, Soybean [9, 23]: 35
Plant response rating, Crabgrass, Large [10, 13]: 90
Crabgrass, Large plant response rating [10, 25]: 90
Plant response rating, Crabgrass, Large [10, 15]: 100
Plant response rating, Crabgrass, Large [10, 16]: 100
Plant response rating, Foxtail, Giant [11, 17]: 20
Plant response rating, Foxtail, Giant [11, 24]: 40
Plant response rating, Foxtail, Giant [11, 18]: 40
Plant response rating, Foxtail, Giant [11, 19]: 40
Plant response rating, Foxtail, Giant [11, 26]: 100
Plant response rating, Foxtail, Giant [11, 21]: 100
Plant response rating, Foxtail, Giant [11, 22]: 100
Plant response rating, Foxtail, Giant [11, 23]: 100
Plant response rating, Pigweed [12, 17]: 35
Plant response rating, Pigweed [12, 24]: 85
Plant response rating, Pigweed [12, 18]: 95
Plant response rating, Pigweed [12, 19]: 98
Plant response rating, Pigweed [12, 26]: 100
Plant response rating, Pigweed [12, 21]: 100
Plant response rating, Pigweed [12, 22]: 100
Plant response rating, Pigweed [12, 23]: 100
